System: Echinochloa crus-galli
Test: Test Example 1: herbicidal effect test by treatment of rice paddy soil (immediately after seeding)
Assay type: in vivo
Conditions: 120 g/10a active ingredient, dry weight vs untreated area, 14 days after treatment
Outline: (§1)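 Pre-emergence paddy water application, 120 g a.i./10 ares, applied immediately post-seeding into ~3 cm flood; glasshouse; duplicate pots; dry weight at 14 d → % inhibition = (1 − treated/untreated) × 100.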

**Q.** Which “Herbicidal rate (%) Echinochloa crus-galli” value does the source give for `COC(=O)N(c1ccccc1Cc1c(C)n(CCSC)oc1=O)S(=O)(=O)C(F)(F)F` [Compound 1-592] here?
**A.** Its value is 90%.

**Q.** How did the “Herbicidal rate (%) Echinochloa crus-galli” value turn out when `CCCCC(c1ccccc1)n1oc(=O)c(Cc2ccccc2NS(=O)(=O)C(F)(F)F)c1C` (centres unmarked) [Compound 1-214] was run?
**A.** The value was 100%.

System: Scirpus juncoides
Test: as above
Assay type: in vivo
Conditions: 120 g/10a active ingredient, dry weight vs untreated area, 14 days after treatment
Outline: as §1

**Q.** `COC(=O)N(c1ccccc1Cc1c(C)n(CCSC)oc1=O)S(=O)(=O)C(F)(F)F` [Compound 1-592] was tested. Which “Herbicidal rate (%) Scirpus juncoides” value did it give?
**A.** Its value is 90%.

**Q.** Which “Herbicidal rate (%) Scirpus juncoides” value does the source give for `CCCCC(c1ccccc1)n1oc(=O)c(Cc2ccccc2NS(=O)(=O)C(F)(F)F)c1C` (centres unmarked) [Compound 1-214] here?
**A.** Its value is 90%.

System: broad leaf weeds (Lindernia pyxidaria and Monochoria vaginalis)
Test: as above
Assay type: in vivo
Conditions: Lindernia pyxidaria, 120 g/10a active ingredient, dry weight vs untreated area, 14 days after treatment
Outline: as §1

**Q.** With `COC(=O)N(c1ccccc1Cc1c(C)n(CCSC)oc1=O)S(=O)(=O)C(F)(F)F` [Compound 1-592] as the compound, how does the “Herbicidal rate (%) Lindernia pyxidaria” value read?
**A.** The value was 90%.

**Q.** For `CCCCC(c1ccccc1)n1oc(=O)c(Cc2ccccc2NS(=O)(=O)C(F)(F)F)c1C` (centres unmarked) [Compound 1-214], which “Herbicidal rate (%) Lindernia pyxidaria” value is on record?
**A.** The value was 100%.

Same assay, conditions: Monochoria vaginalis, 120 g/10a active ingredient, dry weight vs untreated area, 14 days after treatment

**Q.** How did the “Herbicidal rate (%) Monochoria vaginalis” value turn out when `COC(=O)N(c1ccccc1Cc1c(C)n(CCSC)oc1=O)S(=O)(=O)C(F)(F)F` [Compound 1-592] was run?
**A.** Its value is 90%.

**Q.** With `CCCCC(c1ccccc1)n1oc(=O)c(Cc2ccccc2NS(=O)(=O)C(F)(F)F)c1C` (centres unmarked) [Compound 1-214] as the compound, how does the “Herbicidal rate (%) Monochoria vaginalis” value read?
**A.** Its value is 90%.

System: Echinochloa crus-galli
Test: Test Example 2: herbicidal effect test by treatment during growing period in paddy rice cultivation (seven days after seeding)
Assay type: in vivo
Conditions: 120 g/10a active ingredient, assessed 14 days after treatment, dry weight vs untreated area
Outline: (§2)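 Paddy soil in Wagner pots with compound fertilizer, puddled; 30 seeds per species sown at 0–1 cm, flooded ~3 cm, greenhouse. Seven days after seeding, water-diluted emulsions were dropped into the water at 120 g active ingredient per 10 ares. Duplicate pots; herbicidal rate from dry weight versus untreated, 14 days after treatment.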

**Q.** Which “Herbicidal rate (%) Echinochloa crus-galli” value does the source give for `COC(=O)N(c1ccccc1Cc1c(C)n(CCSC)oc1=O)S(=O)(=O)C(F)(F)F` [Compound 1-592] here?
**A.** Its value is 90%.

**Q.** Which “Herbicidal rate (%) Echinochloa crus-galli” value does the source give for `CCCCC(c1ccccc1)n1oc(=O)c(Cc2ccccc2NS(=O)(=O)C(F)(F)F)c1C` (centres unmarked) [Compound 1-214] here?
**A.** The value was 90%.

System: Scirpus juncoides
Test: as above
Assay type: in vivo
Conditions: 120 g/10a active ingredient, assessed 14 days after treatment, dry weight vs untreated area
Outline: as §2

**Q.** With `COC(=O)N(c1ccccc1Cc1c(C)n(CCSC)oc1=O)S(=O)(=O)C(F)(F)F` [Compound 1-592] as the compound, how does the “Herbicidal rate (%) Scirpus juncoides” value read?
**A.** Its value is 90%.

**Q.** For `CCCCC(c1ccccc1)n1oc(=O)c(Cc2ccccc2NS(=O)(=O)C(F)(F)F)c1C` (centres unmarked) [Compound 1-214], which “Herbicidal rate (%) Scirpus juncoides” value is on record?
**A.** Its value is 80%.

System: broad leaf weeds (Lindernia pyxidaria and Monochoria vaginalis)
Test: as above
Assay type: in vivo
Conditions: Lindernia pyxidaria, 120 g/10a active ingredient, assessed 14 days after treatment, dry weight vs untreated area
Outline: as §2

**Q.** `COC(=O)N(c1ccccc1Cc1c(C)n(CCSC)oc1=O)S(=O)(=O)C(F)(F)F` [Compound 1-592] was tested. Which “Herbicidal rate (%) Lindernia pyxidaria” value did it give?
**A.** The value was 90%.

**Q.** `CCCCC(c1ccccc1)n1oc(=O)c(Cc2ccccc2NS(=O)(=O)C(F)(F)F)c1C` (centres unmarked) [Compound 1-214] was tested. Which “Herbicidal rate (%) Lindernia pyxidaria” value did it give?
**A.** The value was 70%.

Same assay, conditions: Monochoria vaginalis, 120 g/10a active ingredient, assessed 14 days after treatment, dry weight vs untreated area

**Q.** Which “Herbicidal rate (%) Monochoria vaginalis” value does the source give for `COC(=O)N(c1ccccc1Cc1c(C)n(CCSC)oc1=O)S(=O)(=O)C(F)(F)F` [Compound 1-592] here?
**A.** The value was 90%.

**Q.** `CCCCC(c1ccccc1)n1oc(=O)c(Cc2ccccc2NS(=O)(=O)C(F)(F)F)c1C` (centres unmarked) [Compound 1-214] was tested. Which “Herbicidal rate (%) Monochoria vaginalis” value did it give?
**A.** The value was 80%.

System: Amaranthus viridis
Test: Test Example 3: herbicidal effect test by treatment of dry field farming soil (one day after seeding)
Assay type: in vivo
Conditions: 120 g/10a active ingredient, evaluated 14 days after treatment
Outline: (§3)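 Pre-emergence soil treatment: alluvial dry-field soil, 20 seeds per species mixed into top 1 cm, emulsion diluted in water sprayed one day after seeding at 100 L per 10 ares (120 g active ingredient per 10 ares). Duplicate pots; herbicidal rate (%) from dry weight vs untreated at 14 days.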

**Q.** `COC(=O)N(c1ccccc1Cc1c(C)n(CCSC)oc1=O)S(=O)(=O)C(F)(F)F` [Compound 1-592] was tested. Which “herbicidal rate, Amaranthus viridis” value did it give?
**A.** The value was 90%.

**Q.** How did the “herbicidal rate, Amaranthus viridis” value turn out when `CCCCC(c1ccccc1)n1oc(=O)c(Cc2ccccc2NS(=O)(=O)C(F)(F)F)c1C` (centres unmarked) [Compound 1-214] was run?
**A.** Its value is 90%.

System: Chenopodium album
Test: as above
Assay type: in vivo
Conditions: 120 g/10a active ingredient, evaluated 14 days after treatment
Outline: as §3

**Q.** For `COC(=O)N(c1ccccc1Cc1c(C)n(CCSC)oc1=O)S(=O)(=O)C(F)(F)F` [Compound 1-592], which “herbicidal rate, Chenopodium album” value is on record?
**A.** The value was 90%.

**Q.** Which “herbicidal rate, Chenopodium album” value does the source give for `CCCCC(c1ccccc1)n1oc(=O)c(Cc2ccccc2NS(=O)(=O)C(F)(F)F)c1C` (centres unmarked) [Compound 1-214] here?
**A.** The value was 90%.

System: Echinochloa crus-galli
Test: as above
Assay type: in vivo
Conditions: 120 g/10a active ingredient, evaluated 14 days after treatment
Outline: as §3

**Q.** Which “herbicidal rate, Echinochloa crus-galli” value does the source give for `COC(=O)N(c1ccccc1Cc1c(C)n(CCSC)oc1=O)S(=O)(=O)C(F)(F)F` [Compound 1-592] here?
**A.** The value was 90%.

**Q.** `CCCCC(c1ccccc1)n1oc(=O)c(Cc2ccccc2NS(=O)(=O)C(F)(F)F)c1C` (centres unmarked) [Compound 1-214] was tested. Which “herbicidal rate, Echinochloa crus-galli” value did it give?
**A.** Its value is 80%.

System: southern crabgrass
Test: as above
Assay type: in vivo
Conditions: 120 g/10a active ingredient, evaluated 14 days after treatment
Outline: as §3

**Q.** Which “herbicidal rate, southern crabgrass” value does the source give for `COC(=O)N(c1ccccc1Cc1c(C)n(CCSC)oc1=O)S(=O)(=O)C(F)(F)F` [Compound 1-592] here?
**A.** The value was 90%.

**Q.** Which “herbicidal rate, southern crabgrass” value does the source give for `CCCCC(c1ccccc1)n1oc(=O)c(Cc2ccccc2NS(=O)(=O)C(F)(F)F)c1C` (centres unmarked) [Compound 1-214] here?
**A.** Its value is 70%.

System: Amaranthus viridis
Test: Test Example 4: herbicidal effect test by treatment of leave and stem in dry field farming (seven days after seeding)
Assay type: in vivo
Conditions: 120 g/10a active ingredient; emulsion sprayed seven days after seeding; evaluated 14 days after treatment
Outline: (§4)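 Weeds were seeded at 20 seeds per species into the top 1 cm of alluvial upland soil in pots, then sprayed 7 days after seeding with water-diluted emulsifiable concentrate at 100 L/10 a, giving 120 g active ingredient/10 a. Duplicate pots; herbicidal rate (%) was 14 days post-treatment, from dry weight versus untreated.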

**Q.** `COC(=O)N(c1ccccc1Cc1c(C)n(CCSC)oc1=O)S(=O)(=O)C(F)(F)F` [Compound 1-592] was tested. Which “herbicidal effect (herbicidal rate), Amaranthus viridis” value did it give?
**A.** The value was 40%.

**Q.** `CCCCC(c1ccccc1)n1oc(=O)c(Cc2ccccc2NS(=O)(=O)C(F)(F)F)c1C` (centres unmarked) [Compound 1-214] was tested. Which “herbicidal effect (herbicidal rate), Amaranthus viridis” value did it give?
**A.** The value was 40%.

System: Chenopodium album
Test: as above
Assay type: in vivo
Conditions: 120 g/10a active ingredient; emulsion sprayed seven days after seeding; evaluated 14 days after treatment
Outline: as §4

**Q.** Which “herbicidal effect (herbicidal rate), Chenopodium album” value does the source give for `COC(=O)N(c1ccccc1Cc1c(C)n(CCSC)oc1=O)S(=O)(=O)C(F)(F)F` [Compound 1-592] here?
**A.** The value was 40%.

**Q.** Which “herbicidal effect (herbicidal rate), Chenopodium album” value does the source give for `CCCCC(c1ccccc1)n1oc(=O)c(Cc2ccccc2NS(=O)(=O)C(F)(F)F)c1C` (centres unmarked) [Compound 1-214] here?
**A.** Its value is 50%.

System: Echinochloa crus-galli
Test: as above
Assay type: in vivo
Conditions: 120 g/10a active ingredient; emulsion sprayed seven days after seeding; evaluated 14 days after treatment
Outline: as §4

**Q.** For `COC(=O)N(c1ccccc1Cc1c(C)n(CCSC)oc1=O)S(=O)(=O)C(F)(F)F` [Compound 1-592], which “herbicidal effect (herbicidal rate), Echinochloa crus-galli” value is on record?
**A.** The value was 90%.

**Q.** Which “herbicidal effect (herbicidal rate), Echinochloa crus-galli” value does the source give for `CCCCC(c1ccccc1)n1oc(=O)c(Cc2ccccc2NS(=O)(=O)C(F)(F)F)c1C` (centres unmarked) [Compound 1-214] here?
**A.** The value was 60%.

System: southern crabgrass
Test: as above
Assay type: in vivo
Conditions: 120 g/10a active ingredient; emulsion sprayed seven days after seeding; evaluated 14 days after treatment
Outline: as §4

**Q.** Which “herbicidal effect (herbicidal rate), southern crabgrass” value does the source give for `COC(=O)N(c1ccccc1Cc1c(C)n(CCSC)oc1=O)S(=O)(=O)C(F)(F)F` [Compound 1-592] here?
**A.** The value was 90%.

**Q.** How did the “herbicidal effect (herbicidal rate), southern crabgrass” value turn out when `CCCCC(c1ccccc1)n1oc(=O)c(Cc2ccccc2NS(=O)(=O)C(F)(F)F)c1C` (centres unmarked) [Compound 1-214] was run?
**A.** The value was 50%.
